Literature values, collected in paper PMC4123439 (Bioorganic & medicinal chemistry, 2009).

System: Tdp1
Conditions: at concentrations of up to 1 mM

Structure (SMILES): COS(=O)(=O)c1ccc(C)cc1 [methyl p-toluene sulfonate]
- Tdp1 inhibitory activity: inactive
